Experimental data reported in patent US9695155B2, “Herbicidal substituted pyrimidinyloxy benzene compounds” (E. I. DU PONT DE NEMOURS AND COMPANY, priority 2013, dated 2017).

Columns and labels:
deadnettle = assay: Test D postemergence; type: in vivo, Lamium amplexicaule; settings: for pest or weed control at 16 g/ha / pest or weed control at 31 g/ha / pest or weed control at 62 g/ha / pest or weed control at 125 g/ha: Lamium amplexicaule, post-emergence; for pest or weed control at 16 g/ha: scale 0-100, read-out: Plant response rating, Deadnettle; for pest or weed control at 31 g/ha / pest or weed control at 62 g/ha / pest or weed control at 125 g/ha: read-out: Plant response rating, Deadnettle
Excerpt: (§1) Seeds of plant species selected from bluegrass (annual bluegrass, Poa annua), blackgrass (Alopecurus myosuroides), canarygrass (littleseed canarygrass, Phalaris minor), chickweed (common chickweed, Stellaria media), galium (catchweed bedstraw, Galium aparine), bromegrass, downy (downy bromegrass, Bromus tectorum), field poppy (Papaver rhoeas), field violet (Viola arvensis), green foxtail (Setaria viridis), deadnettle (henbit deadnettle, Lamium amplexicaule), Italian ryegrass (Lolium multiflorum), kochia (Kochia scoparia), lambsquarters (Chenopodium album), oilseed rape (Brassica napus), pigweed (Amaranthus retroflexus), chamomile (scentless chamomile, Matricaria inodora), Russian thistle (Salsola kali), speedwell (bird's-eye speedwell, Veronica persica), spring barley (Hordeum vulgare), spring wheat (Triticum aestivum), wild buckwheat (Polygonum convolvulus), wild mustard (Sinapis arvensis), wild oat (Avena fatua), wild radish (Raphanus raphanistrum), windgrass (Apera spica-venti), winter barley (Hordeum vulgare), and winter wheat (Triticum aestivum) were planted into a silt loam soil and treated preemergence with test chemicals formulated in a non-phytotoxic solvent mixture which included a surfactant.
(§2) At the same time, these species were planted in pots containing Redi-Earth® planting medium (Scotts Company, 14111 Scottslawn Road, Marysville, Ohio 43041) comprising spaghnum peat moss, vermiculite, wetting agent and starter nutrients and treated with postemergence applications of the test chemicals formulated in the same manner. Plants ranged in height from 2 to 18 cm (1- to 4-leaf stage). Treated plants and controls were maintained in a controlled growth environment for 7 to 21 days after which time all species were compared to controls and visually evaluated. Plant response ratings, summarized in Table D, are based on a scale of 0 to 100 where 0 is no effect and 100 is complete control. A dash (-) response means no test result.

wild mustard = assay: Test D postemergence; type: in vivo, Sinapis arvensis; settings: for pest or weed control at 16 g/ha / pest or weed control at 31 g/ha / pest or weed control at 62 g/ha / pest or weed control at 125 g/ha: Brassica, post-emergence; for pest or weed control at 16 g/ha: scale 0-100, read-out: Plant response rating, Mustard, Wild; for pest or weed control at 31 g/ha / pest or weed control at 62 g/ha / pest or weed control at 125 g/ha: read-out: Plant response rating, Mustard, Wild
Excerpt: as §1, §2

galium = assay: Test D postemergence; type: in vivo, Galium aparine; settings: for pest or weed control at 16 g/ha / pest or weed control at 31 g/ha / pest or weed control at 62 g/ha / pest or weed control at 125 g/ha: Galium, post-emergence; for pest or weed control at 16 g/ha: scale 0-100, read-out: Plant response rating, Galium; for pest or weed control at 31 g/ha / pest or weed control at 62 g/ha / pest or weed control at 125 g/ha: read-out: Plant response rating, Galium
Excerpt: as §1, §2

bluegrass = assay: Test D preemergence; type: in vivo, Poa annua; settings: for pest or weed control at 16 g/ha / pest or weed control at 31 g/ha / pest or weed control at 62 g/ha / pest or weed control at 125 g/ha: Poa annua, pre-emergence; for pest or weed control at 16 g/ha: read-out: Plant response rating, Bluegrass; for pest or weed control at 31 g/ha / pest or weed control at 62 g/ha / pest or weed control at 125 g/ha: scale 0-100, read-out: Plant response rating, Bluegrass
Excerpt: as §1, §2

chickweed [1] = assay: Test D postemergence; type: in vivo, Stellaria media; settings: for pest or weed control at 16 g/ha / pest or weed control at 31 g/ha / pest or weed control at 62 g/ha / pest or weed control at 125 g/ha: Stellaria media, post-emergence; for pest or weed control at 16 g/ha: scale 0-100, read-out: Plant response rating, Chickweed; for pest or weed control at 31 g/ha / pest or weed control at 62 g/ha / pest or weed control at 125 g/ha: read-out: Plant response rating, Chickweed
Excerpt: as §1, §2

chickweed [2] = assay: Test F preemergence; type: in vivo, Stellaria media; settings: 21 days, scale 0 to 100
Excerpt: (§3) Seeds of plant species selected from bermudagrass (Cynodon dactylon), surinam grass (Brachiaria decumbens), large (Lg) crabgrass (Digitaria sanguinalis), crabgrass, naked (naked crabgrass, Digitaria nuda), foxtail, green (green foxtail, Setaria viridis), johnsongrass (Sorghum halepense), kochia (Kochia scoparia), morningglory (pitted morningglory, Ipomoea lacunosa), nutsedge, purple (purple nutsedge, Cyperus rotundus), ragweed (common ragweed, Ambrosia elatior), mustard, black (black mustard, Brassica nigra), guineagrass (Panicum maximum), dallisgrass (Paspalum dilatatum), barnyardgrass (Echinochloa crus-galli), sandbur (southern sandbur, Cenchrus echinatus), sowthistle (common sowthistle, Sonchus oleraceous), Italian ryegrass (Lolium multiflorum), signalgrass (broadleaf signalgrass, Brachiaria platyphylla), dayflower (Virginia (VA) dayflower, Commelina virginica), bluegrass (annual bluegrass, Poa annua), quackgrass (Elytrigia repens), mallow (common mallow, Malva sylvestris), buckwheat, wild (wild buckwheat, Polygonum convolvulus), leafy spurge (Euphorbia esula), chickweed (common chickweed, Stellaria media), wild poinsettia (Euphorbia heterophylla), and pigweed (Amaranthus retroflexus) were planted into a blend of loam soil and sand and treated preemergence with test chemicals formulated in a non-phytotoxic solvent mixture which included a surfactant.
(§4) Treated plants and controls were maintained in a greenhouse for 21 days, after which time all species were compared to controls and visually evaluated. Plant response ratings, summarized in Table F, are based on a scale of 0 to 100 where 0 is no effect and 100 is complete control. A dash (-) response means no test result.

pigweed = assay: Test F preemergence; type: in vivo, Amaranthus retroflexus; settings: 21 days, scale 0 to 100
Excerpt: as §3, §4

mustard, black = assay: Test F preemergence; type: in vivo, Brassica nigra; settings: 21 days, scale 0 to 100
Excerpt: as §3, §4

[3] = 31 g ai/ha, scale 0 to 100 (0 no effect, 100 complete control)
[4] = 62 g ai/ha, scale 0 to 100 (0 no effect, 100 complete control)
[5] = 125 g ai/ha, scale 0 to 100 (0 no effect, 100 complete control)
[6] = 16 g ai/ha, scale 0 (no effect) to 100 (complete control)

SMILES: FCc1cccc(Oc2ncc(Cl)cn2)c1-n1cc(I)cn1 [Compound 245]
- Plant response rating, Deadnettle (deadnettle; 16 g ai/ha, scale 0-100): 100
- Plant response rating, Deadnettle (deadnettle; [3]): 100
- Plant response rating, Deadnettle (deadnettle; [4]): 100
- Plant response rating, Deadnettle (deadnettle; [5]): 100
- Plant response rating, Mustard, Wild (wild mustard; 16 g ai/ha, scale 0-100): 80
- Plant response rating, Mustard, Wild (wild mustard; [3]): 70
- Plant response rating, Mustard, Wild (wild mustard; [4]): 100
- Plant response rating, Mustard, Wild (wild mustard; [5]): 98
- Plant response rating, Galium (galium; 16 g ai/ha, scale 0-100): 70
- Plant response rating, Galium (galium; [3]): 75
- Plant response rating, Galium (galium; [4]): 90
- Plant response rating, Galium (galium; [5]): 98
- Plant response rating, Bluegrass (bluegrass; [6]): 0
- Plant response rating, Bluegrass (bluegrass; 31 g ai/ha, scale 0-100): 0
- Plant response rating, Bluegrass (bluegrass; 62 g ai/ha, scale 0-100): 0
- Plant response rating, Bluegrass (bluegrass; 125 g ai/ha, scale 0-100): 20
- Plant response rating, Chickweed (chickweed [1]; 16 g ai/ha, scale 0-100): 45
- Plant response rating, Chickweed (chickweed [1]; [3]): 75
- Plant response rating, Chickweed (chickweed [1]; [4]): 95
- Plant response rating, Chickweed (chickweed [1]; [5]): 98

SMILES: N#Cc1cccc(Oc2ncc(Cl)cn2)c1-n1cc(OC(F)F)cn1 [Compound 97]
- Plant response rating, Chickweed (chickweed [2]; 16 g ai/ha): 100
- Plant response rating, Chickweed (chickweed [2]; 31 g ai/ha): 100
- Plant response rating, Chickweed (chickweed [2]; 62 g ai/ha): 100
- Plant response rating, Chickweed (chickweed [2]; 125 g ai/ha): 100
- Plant response rating, Chickweed (chickweed [2]; 250 g ai/ha): 100
- Plant response rating, Pigweed (pigweed; 16 g ai/ha): 100
- Plant response rating, Pigweed (pigweed; 31 g ai/ha): 100
- Plant response rating, Pigweed (pigweed; 62 g ai/ha): 100
- Plant response rating, Pigweed (pigweed; 125 g ai/ha): 100
- Plant response rating, Pigweed (pigweed; 250 g ai/ha): 100
- Plant response rating, Mustard, Black (mustard, black; 16 g ai/ha): 90
- Plant response rating, Mustard, Black (mustard, black; 31 g ai/ha): 100
- Plant response rating, Mustard, Black (mustard, black; 62 g ai/ha): 100
- Plant response rating, Mustard, Black (mustard, black; 125 g ai/ha): 100
- Plant response rating, Mustard, Black (mustard, black; 250 g ai/ha): 100

SMILES: N#Cc1cccc(Oc2ncc(Cl)cn2)c1-n1cc(OCC(F)(F)F)cn1 [Compound 274, 3-[(5-chloro-2-pyrimidinyl)oxy]-2-[4-(2,2,2-trifluoroethoxy)-1H-pyrazol-1-yl]benzonitrile]
- Plant response rating, Chickweed (chickweed [2]; 16 g ai/ha): 98
- Plant response rating, Chickweed (chickweed [2]; 31 g ai/ha): 98
- Plant response rating, Chickweed (chickweed [2]; 62 g ai/ha): 100
- Plant response rating, Chickweed (chickweed [2]; 125 g ai/ha): 100
- Plant response rating, Chickweed (chickweed [2]; 250 g ai/ha): 100
- pest or weed control at 16 g/ha (deadnettle; 16 g ai/ha): 50%
- pest or weed control at 31 g/ha (deadnettle; [3]): 45%
- pest or weed control at 62 g/ha (deadnettle; [4]): 60%
- pest or weed control at 125 g/ha (deadnettle; [5]): 70%
- pest or weed control at 16 g/ha (wild mustard; 16 g ai/ha): 70%
- pest or weed control at 31 g/ha (wild mustard; [3]): 75%
- pest or weed control at 62 g/ha (wild mustard; [4]): 100%
- pest or weed control at 125 g/ha (wild mustard; [5]): 100%
- pest or weed control at 16 g/ha (galium; 16 g ai/ha): 70%
- pest or weed control at 31 g/ha (galium; [3]): 70%
- pest or weed control at 62 g/ha (galium; [4]): 75%
- pest or weed control at 125 g/ha (galium; [5]): 85%
- Plant response rating, Pigweed (pigweed; 16 g ai/ha): 100
- Plant response rating, Pigweed (pigweed; 31 g ai/ha): 100
- Plant response rating, Pigweed (pigweed; 62 g ai/ha): 100
- Plant response rating, Pigweed (pigweed; 125 g ai/ha): 100
- Plant response rating, Pigweed (pigweed; 250 g ai/ha): 100
- pest or weed control at 16 g/ha (bluegrass; [6]): 0%
- pest or weed control at 31 g/ha (bluegrass; 31 g ai/ha): 5%
- pest or weed control at 62 g/ha (bluegrass; 62 g ai/ha): 30%
- pest or weed control at 125 g/ha (bluegrass; 125 g ai/ha): 70%
- pest or weed control at 16 g/ha (chickweed [1]; 16 g ai/ha): 65%
- pest or weed control at 31 g/ha (chickweed [1]; [3]): 65%
- pest or weed control at 62 g/ha (chickweed [1]; [4]): 70%
- pest or weed control at 125 g/ha (chickweed [1]; [5]): 80%
- Plant response rating, Mustard, Black (mustard, black; 16 g ai/ha): 98
- Plant response rating, Mustard, Black (mustard, black; 31 g ai/ha): 100
- Plant response rating, Mustard, Black (mustard, black; 62 g ai/ha): 100
- Plant response rating, Mustard, Black (mustard, black; 125 g ai/ha): 100
- Plant response rating, Mustard, Black (mustard, black; 250 g ai/ha): 100

SMILES: Fc1cccc(Oc2ncc(Cl)cn2)c1-n1cc(C(F)F)nn1 [Compound 141, 5-chloro-2-[2-[4-(difluoromethyl)-1H-1,2,3-triazol-1-yl]-3-fluorophenoxy]pyrimidine]
- pest or weed control at 16 g/ha (deadnettle; 16 g ai/ha): 100%
- pest or weed control at 31 g/ha (deadnettle; [3]): 100%
- pest or weed control at 62 g/ha (deadnettle; [4]): 100%
- pest or weed control at 125 g/ha (deadnettle; [5]): 100%
- pest or weed control at 16 g/ha (wild mustard; 16 g ai/ha): 80%
- pest or weed control at 31 g/ha (wild mustard; [3]): 100%
- pest or weed control at 62 g/ha (wild mustard; [4]): 100%
- pest or weed control at 125 g/ha (wild mustard; [5]): 100%
- pest or weed control at 16 g/ha (galium; 16 g ai/ha): 95%
- pest or weed control at 31 g/ha (galium; [3]): 98%
- pest or weed control at 62 g/ha (galium; [4]): 98%
- pest or weed control at 125 g/ha (galium; [5]): 98%
- pest or weed control at 16 g/ha (bluegrass; [6]): 15%
- pest or weed control at 31 g/ha (bluegrass; 31 g ai/ha): 35%
- pest or weed control at 62 g/ha (bluegrass; 62 g ai/ha): 90%
- pest or weed control at 125 g/ha (bluegrass; 125 g ai/ha): 90%
- pest or weed control at 16 g/ha (chickweed [1]; 16 g ai/ha): 70%
- pest or weed control at 31 g/ha (chickweed [1]; [3]): 90%
- pest or weed control at 62 g/ha (chickweed [1]; [4]): 95%
- pest or weed control at 125 g/ha (chickweed [1]; [5]): 100%
